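Results reflect a 48-hour exposure of cells in 96-well plates to compound at five concentrations. GI50 is the concentration that inhibits growth by half.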 The source made the active and inactive calls. Cut-off read from the data, not from the text of the source: active = GI50 up to about 1.1 µM and inactive = higher.
Columns and labels:
Test in all cases: NCI tumour cell line growth inhibition, 48 h
786-0 = test system: 786-0
ACHN = test system: ACHN
CCRF-CEM = test system: CCRF-CEM
EKVX = test system: EKVX
HCC 2998 = test system: HCC 2998
HCT-116 = test system: HCT-116
HCT-15 = test system: HCT-15
HL-60 = test system: HL-60
HOP-62 = test system: HOP-62
HT-29 = test system: HT-29
Hs-578T = test system: Hs-578T
K562 = test system: K562
KM12 = test system: KM12
MCF7 = test system: MCF7
MOLT-4 = test system: MOLT-4
Malme-3M = test system: Malme-3M
NCI-H226 = test system: NCI-H226
NCI-H23 = test system: NCI-H23
NCI-H460 = test system: NCI-H460
NCI-H522 = test system: NCI-H522
OVCAR-3 = test system: OVCAR-3
OVCAR-5 = test system: OVCAR-5
OVCAR-8 = test system: OVCAR-8
PC-3 = test system: PC-3
RPMI-8226 = test system: RPMI-8226
SF-268 = test system: SF-268
SF-295 = test system: SF-295
SF-539 = test system: SF-539
SK-MEL-28 = test system: SK-MEL-28
SK-MEL-2 = test system: SK-MEL-2
SN12C = test system: SN12C
SNB-75 = test system: SNB-75
SR = test system: SR
TK-10 = test system: TK-10
U-251 = test system: U-251
UACC-257 = test system: UACC-257
A498 = test system: A498
A549 = test system: A549
CAKI-1 = test system: CAKI-1
COLO 205 = test system: COLO 205
MDA-N = test system: MDA-N
SNB-19 = test system: SNB-19
SW-620 = test system: SW-620
UACC-62 = test system: UACC-62
DU-145 = test system: DU-145
HOP-92 = test system: HOP-92
LOX IMVI = test system: LOX IMVI
M14 = test system: M14
MDA-MB-231 = test system: MDA-MB-231
MDA-MB-435 = test system: MDA-MB-435
NCI/ADR-RES = test system: NCI/ADR-RES
OVCAR-4 = test system: OVCAR-4
SK-MEL-5 = test system: SK-MEL-5
SK-OV-3 = test system: SK-OV-3
T47D = test system: T47D
UO-31 = test system: UO-31

Measured: GI50

O=C(NCCCn1ccnc1[N+](=O)[O-])C(=O)NCCCn1ccnc1[N+](=O)[O-]
> 100 µM: HCT-15
inactive: 786-0 > 100 µM | ACHN > 100 µM | CCRF-CEM > 100 µM | EKVX > 100 µM | HCC 2998 > 100 µM | HCT-116 > 100 µM | HL-60 > 100 µM | HOP-62 > 100 µM | HT-29 > 100 µM | Hs-578T > 100 µM | K562 > 100 µM | KM12 > 100 µM | MCF7 > 100 µM | MOLT-4 > 100 µM | Malme-3M > 100 µM | NCI-H226 > 100 µM | NCI-H23 > 100 µM | NCI-H460 > 100 µM | NCI-H522 > 100 µM | OVCAR-3 > 100 µM | OVCAR-5 > 100 µM | OVCAR-8 69.2 µM | PC-3 > 100 µM | RPMI-8226 > 100 µM | SF-268 > 100 µM | SF-295 > 100 µM | SF-539 > 100 µM | SK-MEL-28 > 100 µM | SK-MEL-2 45.2 µM | SN12C 90.6 µM | SNB-75 > 100 µM | SR > 100 µM | TK-10 31.3 µM | U-251 > 100 µM | UACC-257 > 100 µM

Cc1cc2c(C(C)C)c(O)c(O)c(C=O)c2c(O)c1-c1c(C)cc2c(C(C)C)c(O)c(O)c(C=O)c2c1O
5.18 µM: HCT-15
inactive: A498 4.47 µM | A549 5.69 µM | ACHN 5.51 µM | CAKI-1 3.39 µM | COLO 205 4.35 µM | EKVX 1.32 µM | K562 2.16 µM | KM12 2.07 µM | MDA-N 87.7 µM | MOLT-4 2.24 µM | OVCAR-3 2.3 µM | PC-3 5.04 µM | RPMI-8226 4.38 µM | SF-295 2.81 µM | SN12C 6.14 µM | SNB-19 7.24 µM | SW-620 7.06 µM | U-251 3.52 µM | UACC-62 4.7 µM

O=c1ss/c(=N\c2ccccc2)n1-c1ccccc1
inactive: 786-0 18.3 µM | A498 > 100 µM | A549 35.4 µM | ACHN 17.1 µM | CCRF-CEM 4.14 µM | COLO 205 26.1 µM | DU-145 16.9 µM | EKVX 33.7 µM | HCC 2998 36.8 µM | HL-60 31.1 µM | HOP-62 20.6 µM | HOP-92 21.6 µM | HT-29 38.5 µM | Hs-578T 32.4 µM | K562 21.8 µM | KM12 30.8 µM | LOX IMVI 19.3 µM | M14 19 µM | MCF7 19.5 µM | MDA-MB-231 25.9 µM | MDA-MB-435 31.9 µM | MDA-N 34.5 µM | MOLT-4 28.7 µM | Malme-3M > 100 µM | NCI-H226 20.1 µM | NCI-H23 21.7 µM | NCI-H460 81.7 µM | NCI/ADR-RES 28.3 µM | OVCAR-3 22.3 µM | OVCAR-4 17 µM | OVCAR-5 40.2 µM | OVCAR-8 16.8 µM | PC-3 19.5 µM | RPMI-8226 21.4 µM | SF-268 18.5 µM | SF-295 > 100 µM | SF-539 35.9 µM | SK-MEL-28 36.9 µM | SK-MEL-2 23.2 µM | SK-MEL-5 32.4 µM | SK-OV-3 > 100 µM | SN12C 20.4 µM | SNB-19 62.5 µM | SNB-75 21.9 µM | SR 17.3 µM | SW-620 24.4 µM | T47D 16.3 µM | TK-10 50.6 µM | U-251 23.2 µM | UACC-257 20.4 µM | UACC-62 31.1 µM | UO-31 17.5 µM
17.8 µM: HCT-15
